No end group written: not given here.
System: human PBMCs
Experiment: Human PBMC cytokine response assay (IFN-γ and IFN-α in cell-free medium by ELISA), with or without cPLGA
Type: cell-based
Conditions: for IFN-α / IFN-α mean: Example 59; for IFN-α mean: mean of four donors
[1] = Table 26, mean of donors 28313-28316

(5′-TCGACGT-3′-HEG)x-Ficoll400 (X range = 150-250, ave. 185) See example 49 (not fully specified (C-terminus); cysteine pairing not given here; also: about 185 copies attached to Ficoll400) [Compound C-137]
IFN-a (Table 26, donor 28313): 3612 pg/mL
IFN-g (Table 26, donor 28313): 1 pg/mL
IFN-a (Table 26, donor 28314): 5468 pg/mL
IFN-g (Table 26, donor 28314): 22 pg/mL
IFN-a (Table 26, donor 28315): 624 pg/mL
IFN-g (Table 26, donor 28315): 13 pg/mL
IFN-a (Table 26, donor 28316): 4000 pg/mL
IFN-g (Table 26, donor 28316): 54 pg/mL
IFN-g mean ×4 (Table 26, mean multiplied by 4): 90 pg/mL
IFN-a mean [1]: 3426 pg/mL
IFN-g mean [1]: 22 pg/mL
IFN-α induction, in words (used alone): significant stimulation of IFN-α
immunomodulatory activity (IFN-γ / IFN-α secretion), in words (used alone (no cPLGA)): striking activity in the cytokine response assays

(5′-TCGACGT-HEG)2-glycerol-HEG-5′-ACTTAGAGGTTCAGTAGG-3′ (SEQ ID NO: 157) (DNA, all phosphorothioate, methylation of C not given here; Two heptamer DNA arms joined by HEG spacers and glycerol branching to the chain) [Compound C-202]
IFN-α (0.8 ug/ml, donor 48): 830 pg/mL
IFN-α (0.8 ug/ml, donor 177): 102 pg/mL
IFN-α (0.8 ug/ml, donor 272): 102 pg/mL
IFN-α (0.8 ug/ml, donor 273): 102 pg/mL
IFN-α mean (0.8 ug/ml): 284 pg/mL
IFN-α (4 ug/ml, donor 48): 2250 pg/mL
IFN-α (4 ug/ml, donor 177): 2482 pg/mL
IFN-α (4 ug/ml, donor 272): 1222 pg/mL
IFN-α (4 ug/ml, donor 273): 215 pg/mL
IFN-α mean (4 ug/ml): 1542 pg/mL
IFN-α (20 ug/ml, donor 48): 1901 pg/mL
IFN-α (20 ug/ml, donor 177): 2742 pg/mL
IFN-α (20 ug/ml, donor 272): 612 pg/mL
IFN-α (20 ug/ml, donor 273): 339 pg/mL
IFN-α mean (20 ug/ml): 1399 pg/mL

(5′-TCGACGT-HEG)2-glycerol-HEG-5′-CCTACTGAACCTCTAAGT-3′ (SEQ ID NO: 158) (DNA, all phosphorothioate, methylation of C not given here; Two heptamer DNA arms joined by HEG spacers and glycerol branching to the chain) [Compound C-203]
IFN-α (0.8 ug/ml, donor 48): 102 pg/mL
IFN-α (0.8 ug/ml, donor 177): 102 pg/mL
IFN-α (0.8 ug/ml, donor 272): 102 pg/mL
IFN-α (0.8 ug/ml, donor 273): 102 pg/mL
IFN-α mean (0.8 ug/ml): 102 pg/mL
IFN-α (4 ug/ml, donor 48): 691 pg/mL
IFN-α (4 ug/ml, donor 177): 487 pg/mL
IFN-α (4 ug/ml, donor 272): 102 pg/mL
IFN-α (4 ug/ml, donor 273): 102 pg/mL
IFN-α mean (4 ug/ml): 346 pg/mL
IFN-α (20 ug/ml, donor 48): 735 pg/mL
IFN-α (20 ug/ml, donor 177): 681 pg/mL
IFN-α (20 ug/ml, donor 272): 102 pg/mL
IFN-α (20 ug/ml, donor 273): 102 pg/mL
IFN-α mean (20 ug/ml): 405 pg/mL

(5′-TCGACGT-HEG)2-glycerol-HEG-5′-TTGGCCAAGCTTGGCCAA (SEQ ID NO: 116) (DNA, all phosphorothioate, methylation of C not given here; Two heptamer DNA arms joined by HEG spacers and glycerol branching to the chain) [Compound C-178]
IFN-α (0.8 ug/ml, donor 48): 336 pg/mL
IFN-α (0.8 ug/ml, donor 177): 1150 pg/mL
IFN-α (0.8 ug/ml, donor 272): 149 pg/mL
IFN-α (0.8 ug/ml, donor 273): 102 pg/mL
IFN-α mean (0.8 ug/ml): 434 pg/mL
IFN-α (4 ug/ml, donor 48): 16300 pg/mL
IFN-α (4 ug/ml, donor 177): 8304 pg/mL
IFN-α (4 ug/ml, donor 272): 1677 pg/mL
IFN-α (4 ug/ml, donor 273): 1732 pg/mL
IFN-α mean (4 ug/ml): 7003 pg/mL
IFN-α (20 ug/ml, donor 48): 13946 pg/mL
IFN-α (20 ug/ml, donor 177): 19973 pg/mL
IFN-α (20 ug/ml, donor 272): 15050 pg/mL
IFN-α (20 ug/ml, donor 273): 3971 pg/mL
IFN-α mean (20 ug/ml): 13235 pg/mL
